Results taken from article PMC7897990, “TriTOX: A novel Trichomonas vaginalis assay platform for high-throughput screening of compound libraries” (International Journal for Parasitology: Drugs and Drug …, 2021).
Like-named read-outs stand apart in the source and are kept apart here. Non-standard residues stand in square brackets, D forms with d. Residues, ends and D or L forms follow the SMILES beside them. Phe(ol) = N[C@H](CO)Cc1ccccc1; Aib = CC(C)(N)C(=O)O

Assays:
[1] = tested on: nontumorigenic neonatal foreskin fibroblast (NFF) cell line
[2] = tested on: Trichomonas vaginalis G3 trophozoites
[3] = NFF_NS1 screen 5 µg/mL, single concentration
[4] = HTS single concentration, parasite screen 1 µg/mL, replicate 1
[5] = HTS single concentration, parasite screen 1 µg/mL, replicate 2
[6] = NFF_NS1 screen at 5 µg/mL, NFF cells
[7] = parasite screen at 1 µg/mL, replicate 1
[8] = parasite screen at 1 µg/mL, replicate 2
[9] = NFF fibroblasts, single concentration 5 µg/mL
[10] = HTS replicate 1, parasite screen 1 µg/mL
[11] = HTS replicate 2, parasite screen 1 µg/mL
[12] = replicate 1, parasite screen at 1 µg/mL
[13] = replicate 2, parasite screen at 1 µg/mL

CC(=O)NC(C)(C)C(=O)N1CCC[C@H]1C(=O)NC(C)(C)C(=O)N[C@@H](C)C(=O)NC(C)(C)C(=O)N[C@@H](C)C(=O)N[C@@H](CCC(N)=O)C(=O)NC(C)(C)C(=O)N[C@H](C(=O)NC(C)(C)C(=O)NCC(=O)N[C@@H](CC(C)C)C(=O)NC(C)(C)C(=O)N1CCC[C@H]1C(=O)N[C@H](C(=O)NC(C)(C)C(=O)NC(C)(C)C(=O)N[C@@H](CCC(N)=O)C(=O)N[C@@H](CCC(N)=O)C(=O)N[C@H](CO)Cc1ccccc1)C(C)C)C(C)C [BIA-A1543] (Ac-[Aib]P[Aib]A[Aib]AQ[Aib]V[Aib]GL[Aib]PV[Aib][Aib]QQ[Phe(ol)])
NFF_Activity [1, 3]: I (otherwise these were reported as inactive (I))
T.vaginalis_%inb_Rep1 [2, 4]: 13.73%
T.vaginalis_%inb_Rep2 [2, 5]: 13.74%

COc1cc(/C=C/C(=O)O)cc(OC)c1O [BIA-S1730]
NFF_Activity [1, 6]: I (otherwise these were reported as inactive (I))
T.vaginalis_%inb_Rep1 [2, 7]: 9.02%
T.vaginalis_%inb_Rep2 [2, 8]: 14.02%

C[C@@]12CCC[C@@]34CCC[C@@H](C=C[C@H]1CC3)N42 [Porantherine]
NFF_Activity [1, 9]: I (otherwise these were reported as inactive (I))
T.vaginalis_%inb_Rep1 [2, 10]: 9.49%
T.vaginalis_%inb_Rep2 [2, 11]: 15.78%

CN(N=O)C(=O)N[C@@H]1[C@@H](O)[C@H](O)[C@@H](CO)O[C@@H]1O [BIA-S1186]
NFF_Activity [1, 6]: I (otherwise these were reported as inactive (I))
T.vaginalis_%inb_Rep1 [2, 7]: 9.02%
T.vaginalis_%inb_Rep2 [2, 8]: 7.62%

CCCCC[C@@H]1CC[C@H](C)CCCCC(=O)N(C)[C@@H](Cc2ccc(OCCO)cc2)C(=O)O1 [PF1163B]
NFF_Activity [1, 9]: I (otherwise these were reported as inactive (I))
T.vaginalis_%inb_Rep1 [2, 10]: 17.85%
T.vaginalis_%inb_Rep2 [2, 11]: 14.30%

CCC(C(=O)C(C)C(O)C(C)CCc1ccc(C)c(O)c1C(=O)O)C1OC(CC)(C2CCC(O)(CC)C(C)O2)CC1C (stereo not drawn) [BIA-L1533]
NFF_Activity ([1]; NFF cells, screen at 5 µg/mL): I (otherwise these were reported as inactive (I))
T.vaginalis_%inb_Rep1 [2, 12]: 11.71%
T.vaginalis_%inb_Rep2 [2, 13]: 10.90%

CN1C(=O)c2ccccc2-n2c(nc3ccccc3c2=O)C12OC2c1ccccc1 (stereo not drawn) [BIA-B1679]
NFF_Activity [1, 3]: I (otherwise these were reported as inactive (I))
T.vaginalis_%inb_Rep1 [2, 4]: 16.96%
T.vaginalis_%inb_Rep2 [2, 5]: 15.26%

O=C1CCC[C@@H]2[C@H]3C[C@@H](CN12)[C@@H]1CCCCN1C3 [BIA-L1951]
NFF_Activity ([1]; NFF cells, screen at 5 µg/mL): I (otherwise these were reported as inactive (I))
T.vaginalis_%inb_Rep1 [2, 12]: 8.91%
T.vaginalis_%inb_Rep2 [2, 13]: 11.70%

CC[C@H](C)[C@H]1O[C@]2(CC[C@@H]1C)C[C@@H]1C[C@@H](C/C=C(\C)[C@@H](O[C@H]3C[C@H](OC)[C@@H](O[C@H]4C[C@H](OC)[C@@H](O)[C@H](C)O4)[C@H](C)O3)[C@@H](C)/C=C/C=C3\CO[C@@H]4[C@H](O)C(C)=C[C@@H](C(=O)O1)[C@]34O)O2 [BIA-I1119]
NFF_Activity ([1]; NFF cells, screen at 5 µg/mL): I (otherwise these were reported as inactive (I))
T.vaginalis_%inb_Rep1 [2, 12]: 13.79%
T.vaginalis_%inb_Rep2 [2, 13]: 12.96%

O=c1cc(CO)occ1O [BIA-K1696]
NFF_Activity ([1]; NFF cells, screen at 5 µg/mL): I (otherwise these were reported as inactive (I))
T.vaginalis_%inb_Rep1 [2, 12]: 13.34%
T.vaginalis_%inb_Rep2 [2, 13]: 13.98%

CC=CC(C)=CC(C)C(=O)CC(O)CC1CC(=O)NC(=O)C1 (stereo not drawn) [BIA-M1404]
NFF_Activity [1, 3]: I (otherwise these were reported as inactive (I))
T.vaginalis_%inb_Rep1 [2, 4]: 18.76%
T.vaginalis_%inb_Rep2 [2, 5]: 13.41%

Cc1c2ccocc-2oc1=O [BIA-K1791]
NFF_Activity ([1]; NFF cells, screen at 5 µg/mL): I (otherwise these were reported as inactive (I))
T.vaginalis_%inb_Rep1 [2, 12]: 12.47%
T.vaginalis_%inb_Rep2 [2, 13]: 13.47%
